Test results published in patent US20060166866A1, “Cell adhesion inhibitors” (Biogen, Inc., a Massachusetts corporation, priority 1995, published 2006).

Biological target: T1, VLA4 (Homo sapiens, UniProt P05556+P13612)
T1 construct: endogenous in cells; host or cells: Ramos cells
Experiment: Inhibition of VLA4-dependent adhesion to BSA-CS1 (fluorescently labelled Ramos cells)
Type: cell-based
Details: binding of BCECF-labelled Ramos cells to CS1 peptide-coated wells, 2 mM MnCl2, 30 minutes at room temperature
Text: For example, the cell adhesion inhibitory activity of these compounds may be measured by determining the concentration of inhibitor required to block the binding of VLA-4-expressing cells to fibronectin- or CS1-coated plates. In this assay microtiter wells are coated with either fibronectin (containing the CS-1 sequence) or CS-1. If CS-1 is used, it must be conjugated to a carrier protein, such as bovine serum albumin, in order to bind to the wells. Once the wells are coated, varying concentrations of the test compound are then added together with appropriately labelled, VLA-4-expressing cells. Alternatively, the test compound may be added first and allowed to incubate with the coated wells prior to the addition of the cells. The cells are allowed to incubate in the wells format least 30 minutes. Following incubation, the wells are emptied and washed. Inhibition of binding is measured by quantitating the fluorescence or radioactivity bound to the plate for each of the various concentrations of test compound, as well as for controls containing no test compound.
VLA-4-expressing cells that may be utilized in this assay include Ramos cells, Jurkat cells, A375 melanoma cells, as well as human peripheral blood lymophocytes (PBLs). The cells used in this assay may be fluorescently or radioactively labelled.
This assay was used to assess the potency of VLA4-directed inhibitory compounds of this invention.
1. Conjugation of CS1 to BSA
We dissolved BSA-SMCC (Pierce Chemical, Rockford, Ill.; Catalog,# 77115) in H2O at a concentration of 10 mg/mL. [SEQ ID NO:4]:Cys-Tyr-Asp-Glu-Leu-Pro-Gln-Leu-Val-Thr-Leu-Pro-His-Pro-Asn-Leu-His-GIy-Pro-Glu-Ile-Leu-Asp-Val-Pro-Ser-Thr (“Cys-Tyr-CS1 peptide”), which we synthesized by conventional solid phase chemistry and purified by HPLC, was dissolved in 10 mM HEPES pH 5, 50 mM NaCl and 0.1 mM EDTA also at a concentration of 10 mg/mL. We then mixed 500 μL of BSA-SMCC, 250 μL of Cys-Tyr-CS1 peptide and 75 μL of […] and allowed the conjugation reaction to proceed for 30 minutes. We stopped the reaction by adding 1 μL of beta-mercaptoethanol. Samples were analyzed for cross-linking by SDS-PAGE. This reaction produced multiple molecules of the Cys-Tyr-CS1 peptide conjugate to each BSA molecule.
2. Preparation of Plates for Adhesion Assay
We coated the wells of a Linbro titertek polystyrene 96-well flat bottom plate (Flow Laboratories, Maclean, Va.; catalog #76-231-05) with 100 μL of the above-described BSA-CS1 solution diluted to 1 μg/mL in 0.05 M NaHCO3 (15 mM NaHCO3, 35 mM Na2CO3) pH 9.2. Some wells were not coated with CS1 in order to assess non-specific cell binding (NSB). The plate was then incubated overnight at 4° C.
Following this incubation, the contents of the wells were removed by inverting and blotting the plate. All of the wells were then blocked with 100 μL of 1% BSA in PBS, 0.02% NaN3, for a minimum of one hour at room temperature.
3. Preparation of Fluorescently Labelled Ramos Cells
Ramos cells are grown, maintained and labelled in RPMI 1640 culture medium containing 1% BSA. Just prior to running the assay, we added 2′,7′-bis-(2-carboxyethyl)-5 (and -6) carboxyfluorescein acetoxymethyl ester (“BCECF-AM”; Molecular Probes Inc., Eugene, Oreg.; catalog #B-1150) to a final concnetration of 2 μM to a culture of Ramos cells (4×10^6 cells/mL). We incubated the cells for 20 minutes at 37° C.
Following labelling, the cells were washed twice in assay buffer (24 mM TRIS, 137 mM NaCl, 2.7 mM KCl, pH 7.4, containing 0.1% BSA and 2 mM glucose) to remove any cations originating from the culture medium. The cells were then resuspended in assay buffer to 4×10^6 cells/mL and 2 mM MnCl2 was added to upregulate VLA4 on the surface of the cells.
Immediately prior to running the assay, we removed the BSA blocking solution from the 96-well plates and washed the wells with 100 μL of assay buffer. We then added to each well 25 μL of test compound at 2× the final concentration and 25 μL of the labelled Ramos cells. […]

T1 sequence (P13612 34-1032): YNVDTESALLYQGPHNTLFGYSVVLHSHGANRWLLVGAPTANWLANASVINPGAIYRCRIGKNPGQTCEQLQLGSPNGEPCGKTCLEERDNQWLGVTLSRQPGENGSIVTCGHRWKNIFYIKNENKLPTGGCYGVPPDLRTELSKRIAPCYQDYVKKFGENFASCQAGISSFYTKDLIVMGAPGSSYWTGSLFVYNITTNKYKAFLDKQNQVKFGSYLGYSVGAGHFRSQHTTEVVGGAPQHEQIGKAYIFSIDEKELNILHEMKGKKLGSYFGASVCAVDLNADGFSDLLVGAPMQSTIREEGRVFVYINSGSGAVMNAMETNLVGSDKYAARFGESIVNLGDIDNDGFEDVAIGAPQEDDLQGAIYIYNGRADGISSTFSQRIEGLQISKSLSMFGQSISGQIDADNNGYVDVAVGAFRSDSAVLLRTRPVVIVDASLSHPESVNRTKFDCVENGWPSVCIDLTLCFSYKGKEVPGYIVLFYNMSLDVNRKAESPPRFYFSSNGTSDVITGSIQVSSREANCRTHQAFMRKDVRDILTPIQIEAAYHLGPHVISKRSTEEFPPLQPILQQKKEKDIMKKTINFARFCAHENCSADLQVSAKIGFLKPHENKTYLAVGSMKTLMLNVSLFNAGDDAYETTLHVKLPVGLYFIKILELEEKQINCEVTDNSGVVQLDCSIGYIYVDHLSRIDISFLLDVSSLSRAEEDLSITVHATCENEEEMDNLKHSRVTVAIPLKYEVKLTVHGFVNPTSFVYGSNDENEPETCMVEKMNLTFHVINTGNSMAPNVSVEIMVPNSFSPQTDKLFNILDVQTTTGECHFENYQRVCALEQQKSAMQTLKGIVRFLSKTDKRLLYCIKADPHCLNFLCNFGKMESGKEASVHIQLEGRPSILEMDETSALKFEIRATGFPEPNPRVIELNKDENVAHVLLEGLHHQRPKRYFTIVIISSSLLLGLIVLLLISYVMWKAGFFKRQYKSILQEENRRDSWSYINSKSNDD
T1 sequence (P05556 21-798): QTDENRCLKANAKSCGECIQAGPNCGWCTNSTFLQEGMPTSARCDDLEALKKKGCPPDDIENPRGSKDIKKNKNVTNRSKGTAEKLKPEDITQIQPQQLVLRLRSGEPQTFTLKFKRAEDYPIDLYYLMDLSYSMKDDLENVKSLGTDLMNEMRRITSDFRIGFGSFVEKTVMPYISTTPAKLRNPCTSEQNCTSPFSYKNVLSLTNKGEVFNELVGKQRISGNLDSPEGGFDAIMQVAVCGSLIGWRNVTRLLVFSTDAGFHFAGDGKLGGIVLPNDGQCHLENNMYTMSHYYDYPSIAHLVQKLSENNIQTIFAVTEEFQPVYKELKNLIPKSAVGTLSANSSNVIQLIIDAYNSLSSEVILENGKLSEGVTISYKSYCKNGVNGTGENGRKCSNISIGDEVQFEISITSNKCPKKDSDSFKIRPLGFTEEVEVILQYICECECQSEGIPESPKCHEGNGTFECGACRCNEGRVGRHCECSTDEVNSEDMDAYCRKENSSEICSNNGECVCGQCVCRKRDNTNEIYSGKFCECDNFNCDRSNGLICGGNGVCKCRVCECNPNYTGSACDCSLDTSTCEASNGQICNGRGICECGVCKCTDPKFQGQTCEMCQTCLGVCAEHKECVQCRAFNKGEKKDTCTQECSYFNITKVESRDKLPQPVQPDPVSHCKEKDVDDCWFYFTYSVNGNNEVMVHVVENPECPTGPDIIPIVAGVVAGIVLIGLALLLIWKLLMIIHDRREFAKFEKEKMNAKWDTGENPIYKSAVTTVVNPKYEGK

Compound | IC50 [µM]
COC(=O)c1ccc(C(CC(=O)O)NC(=O)C(CCSC)NC(=O)Cc2ccc(NC(=O)Nc3ccccc3C)cc2)cc1 (stereo not shown) [BIO-1361] | < 0.05
COc1ccc(C(CC(=O)O)NC(=O)C(CCSC)NC(=O)Cc2ccc(NC(=O)Nc3ccccn3)cc2)cc1OC (stereo not shown) [BIO-1347] | < 0.05
COc1ccc(C(CC(=O)O)NC(=O)C(CC(C)C)NC(=O)Cc2ccc(NC(=O)Nc3ccccc3F)cc2)cc1OC (stereo not shown) [BIO-1525] | 0.05 to 10
COC(=O)c1ccc(C(CC(=O)O)NC(=O)C(CC(C)C)NC(=O)Cc2ccc(NC(=O)Nc3ccccc3)cc2)cc1 (stereo not shown) [BIO-1388] | < 0.05
C=CCC(CC(=O)O)NC(=O)C(CC(C)C)NC(=O)Cc1ccc(NC(=O)Nc2ccccc2C)cc1 (stereo not shown) [BIO-1515] | < 0.05
COC(=O)NCCCCC(NC(=O)Cc1ccc(NC(=O)Nc2ncccc2C)cc1)C(=O)NC(CC(=O)O)c1ccc(OC)c(OC)c1 (stereo not shown) [BIO-1311] | 0.05 to 10
COc1ccc(C(CC(=O)O)NC(=O)C(CC(C)C)NC(=O)Cc2ccc(NC(=O)Nc3ccccn3)cc2)cc1 (stereo not shown) [BIO-1194] | < 0.05
COc1cccc(C(CC(=O)O)NC(=O)C(CC(C)C)NC(=O)Cc2ccccc2)c1 (stereo not shown) [BIO-1160] | 0.05 to 10
Cc1ccccc1NC(=O)Nc1ccc(CC(=O)NC(CC(C)C)C(=O)NC(CC(=O)O)CN2CCOCC2)cc1 (stereo not shown) [BIO-1721] | 0.05 to 10
C#CC(CC(=O)O)NC(=O)C(CC(C)C)NC(=O)Cc1ccc(NC(=O)Nc2ccccc2C)cc1 (stereo not shown) [BIO-1490] | < 0.05
CSCCC(NC(=O)Cc1ccc(NC(=O)Nc2ccccn2)cc1)C(=O)NC(CC(=O)O)c1ccc2c(c1)OCO2 (stereo not shown) [BIO-1393] | < 0.05
Cc1ccccc1NC(=O)Nc1ccc(CC(=O)NC(CC(C)C)C(=O)NC(CCc2ccccc2)CC(=O)O)cc1 (stereo not shown) [BIO-1400] | < 0.05
COc1ccc(C(CC(=O)O)NC(=O)C(CC(C)C)NC(=O)Cc2ccc(NC(=O)Nc3ccccc3C)cc2)cc1OC (stereo not shown) [BIO-1212] | < 0.05
Cc1ccccc1NC(=O)Nc1ccc(CC(=O)NC(CC(C)C)C(=O)NC(CC(=O)O)c2ccccc2)cc1 (stereo not shown) [BIO-1197] | < 0.05
CC(C)CC(NC(=O)Cc1ccc(NC(=O)c2cc3ccccc3[nH]2)cc1)C(=O)NCCC(=O)O (stereo not shown) [BIO-1648] | 0.05 to 10
Cc1ccccc1NC(=O)Nc1ccc(CC(=O)NC(CC(C)C)C(=O)NCCC(=O)O)cc1 (stereo not shown) [BIO-1594] | 0.05 to 10
O=C(O)CC(NC(=O)C(CSCc1ccccc1)NC(=O)Cc1ccc(NC(=O)Nc2ccccc2)cc1)c1ccccc1 (stereo not shown) [BIO-1136] | 0.05 to 10
CC(C)CNC(=O)C(CC(=O)O)NC(=O)C(CC(C)C)NC(=O)Cc1ccc(NC(=O)Nc2ccccc2)cc1 (stereo not shown) [BIO-1186] | 0.05 to 10
CC(C)CC(NC(=O)Cc1ccc(NC(=S)Nc2ccccc2)cc1)C(=O)NC(CC(=O)O)c1ccc2c(c1)OCO2 (stereo not shown) [BIO-1358] | 0.05 to 10
CC(C)CC(NC(=O)Nc1ccc([N+](=O)[O-])cc1)C(=O)NC(CC(=O)O)c1ccccc1 (stereo not shown) [BIO-1108] | > 10
COC(=O)NCCCCC(NC(=O)Cc1ccc(NC(=O)Nc2ccccc2C)cc1)C(=O)NC(CC(=O)O)c1ccc2c(c1)OCO2 (stereo not shown) [BIO-1272] | < 0.05
Cc1ccccc1NC(=O)Nc1ccc(CC(=O)NC(CC(C)C)C(=O)NC(C)CC(=O)O)cc1 (stereo not shown) [BIO-1536] | < 0.05
CC(C)CC(NC(=O)Cc1ccc(NC(=O)Nc2ccccc2)cc1)C(=O)NC(CC(=O)O)c1ccc(F)c(F)c1 (stereo not shown) [BIO-1195] | < 0.05
CC(C)CC(NC(=O)CC(c1ccccc1)c1ccccc1)C(=O)NC(CC(=O)O)c1ccccc1 (stereo not shown) [BIO-1099] | > 10

Next, values leading:

IC50 [µM] | Compound
0.05 to 10 | CC(C)CC(NC(=O)Cc1ccc(NC(=O)c2c[nH]c3ccccc23)cc1)C(=O)NC(CC(=O)O)c1ccc2c(c1)OCO2 (stereo not shown) [BIO-1655]
< 0.05 | Cc1ccccc1NC(=O)Nc1ccc(CC(=O)NC(CSCCCO)C(=O)NC(CC(=O)O)c2ccc3c(c2)OCO3)cc1 (stereo not shown) [BIO-1246]
0.05 to 10 | COc1ccc(C(CC(=O)O)NC(=O)C(CC(C)C)NC(=O)Cc2ccc(NC(=O)Nc3ccc(F)cc3)cc2)cc1OC (stereo not shown) [BIO-1526]
0.05 to 10 | Cc1ccc(NC(=O)Nc2ccc(CC(=O)NC(CC(C)C)C(=O)NC(CC(=O)O)c3ccc4c(c3)OCO4)cc2)cc1 (stereo not shown) [BIO-1067]
0.05 to 10 | CC(C)CC(NC(=O)Cc1ccc(NC(=O)c2ccc[nH]2)cc1)C(=O)NC(CC(=O)O)c1ccc2c(c1)OCO2 (stereo not shown) [BIO-1474]
0.05 to 10 | CC(C)CC(NC(=O)Cc1ccc(Nc2nc3ccccc3o2)cc1)C(=O)NC(CC(=O)O)c1ccc2c(c1)OCO2 (stereo not shown) [BIO-1396]
0.05 to 10 | C=CCNC(=O)Nc1ccc(CC(=O)NC(CC(C)C)C(=O)NC(CC(=O)O)c2ccc3c(c2)OCO3)cc1 (stereo not shown) [BIO-1475]
< 0.05 | Cc1ccccc1NC(=O)Nc1ccc(CC(=O)NC(CC(C)C)C(=O)NC(CC(=O)O)c2ccc3c(c2)CCO3)cc1 (stereo not shown) [BIO-1360]
0.05 to 10 | CC(C)CC(NC(=O)Cc1ccc(NC(=O)Nc2ccccc2)cc1)C(=O)NC(CC(=O)O)c1ccc2c(c1)OCO2 (stereo not shown) [BIO-1128]
< 0.05 | Cc1ccccc1NC(=O)Nc1ccc(CC(=O)NC(CSCCN(C)C)C(=O)NC(CC(=O)O)c2ccc3c(c2)OCO3)cc1 (stereo not shown) [BIO-1345]
0.05 to 10 | CSCCC(NC(=O)Cc1ccc(NC(=O)Nc2ncccc2C)cc1)C(=O)NC(CC(=O)O)c1ccc2c(c1)OCO2 (stereo not shown) [BIO-1429]
0.05 to 10 | CC(C)CC(NC(=O)Cc1ccc(NC(=O)n2ccc3ccccc32)cc1)C(=O)NC(CC(=O)O)c1ccc2c(c1)OCO2 (stereo not shown) [BIO-1327]
0.05 to 10 | CC(C)CC(NC(=O)Cc1ccc(NC(=O)NC(C)(C)C)cc1)C(=O)NC(CC(=O)O)c1ccc2c(c1)OCO2 (stereo not shown) [BIO-1076]
